Laboratory results published in patent publication US12187709B2 (Genentech, Inc., priority 2021, dated 2025).

Columns and labels:
[1] = biological target: Human Cbl-b (residues 40-426) (Homo sapiens (Human), UniProt Q13191); assay: Cbl-b SPR assay; format: binding; conditions: for Fold of selectivity: C-cbl SPR Kd vs Cbl-b SPR Kd; for Kd: SPR, 20° C.
Protocol: (§1) Affinity of binding to Cbl-b and c-Cbl for compounds described herein was assessed by surface plasmon resonance (SPR) according to the following protocol.
(§2) A surface capture range of 1300-1500 RU of protein was used for both isoforms.
(§3) For SPR measurements, 6 concentrations with 2 fold serial dilution were measured with blanks flanking each series for double referencing. […] SPR sensorgrams were recorded in multi-cycle kinetics format, with a contact time of 60 seconds and a flow rate of 40 μl/min, the dissociation time was varied between 120-1200 seconds aiming for 4-5 half-lives of the measured interaction.
(§4) Kinetic and affinity parameters were extracted from the multicycle kinetics data fitting to a 1:1 binding model using the Biacore™ Incyte evaluation software (Cytiva).
(§5) Chaser assay utilize a single cycle kinetics SPR experiment with a contact time of 120 seconds, a flow rate of 50 μl/min and a dissociation time of 450 seconds. Single cycle kinetics titration utilized an initial blank injection and 5 concentrations with 2 fold serial dilution with a maximum concentration of 500 nM, blanked to a preceding 6 point blank single cycle kinetics injection for double referencing.
(§6) The kd is measured independently by determining the percentage unoccupied compound binding site over time by measuring the binding of a chaser compound measured by SPR.
(§7) Chaser binding was measured by a multicycle kinetics SPR experiment using a contact time of 20 seconds, a flow rate of 30 μl/min, and a dissociation time of 120 seconds. […] The % compound bound at a given time was determined by comparison to a single injection of chaser preceding the single cycle kinetics titration defined below. % Compound Bound=(1−(RUT/RUT0))*100
(§8) The % compound bound is plotted against time in seconds and fit to a single exponential, where the exponent represents the kd of the compound-protein complex. The single cycle kinetics experiment of the compound is then fit with a fixed kd determined using the chaser.

[2] = biological target: c-Cbl (residues 47-435) (Homo sapiens (Human), UniProt P22681); assay: c-Cbl SPR assay; format: binding; conditions: 20° C.
Protocol: as §1, §2, §3, §4, §5, §6, §7, §8

[3] = biological target: Cbl-b (Homo sapiens (Human), UniProt Q13191); assay: Cbl-b LCK Ub TR-FRET assay (Cbl-b Lck HTRF); format: biochemical; conditions: for IC50: Cbl-b LCK Ub TR-FRET; for fold-selectivity (Cbl-b over C-cbl) / (fold-selectivity) Cbl-b and C-Cbl Selectivity: ratio C-cbl Lck HTRF IC50 / Cbl-b Lck HTRF IC50
Method in brief: (§9)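 Signal is read once the detection mix has stood 20 min at ambient temperature. Curves are anchored by DMSO as maximum and by omission of LCK as minimum.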

[4] = biological target: c-Cbl (Homo sapiens (Human), UniProt P22681); assay: C-Cbl LCK Ub TR-FRET assay (C-cbl Lck HTRF); format: biochemical
Method in brief: as §9

Sequence of Human Cbl-b (residues 40-426) (Q13191 40-426): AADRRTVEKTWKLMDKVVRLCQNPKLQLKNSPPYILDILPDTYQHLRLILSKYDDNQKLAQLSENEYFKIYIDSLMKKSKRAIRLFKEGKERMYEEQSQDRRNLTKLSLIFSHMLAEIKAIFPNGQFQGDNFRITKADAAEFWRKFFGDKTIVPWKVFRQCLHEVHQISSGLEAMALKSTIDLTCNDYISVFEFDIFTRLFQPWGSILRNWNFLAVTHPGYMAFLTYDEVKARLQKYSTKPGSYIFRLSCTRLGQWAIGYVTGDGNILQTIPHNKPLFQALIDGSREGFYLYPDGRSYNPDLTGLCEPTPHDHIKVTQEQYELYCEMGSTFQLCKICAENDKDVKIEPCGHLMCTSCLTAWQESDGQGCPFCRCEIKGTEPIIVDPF
Sequence of Cbl-b (Q13191 40-426): as above
Sequence of c-Cbl (P22681 47-435): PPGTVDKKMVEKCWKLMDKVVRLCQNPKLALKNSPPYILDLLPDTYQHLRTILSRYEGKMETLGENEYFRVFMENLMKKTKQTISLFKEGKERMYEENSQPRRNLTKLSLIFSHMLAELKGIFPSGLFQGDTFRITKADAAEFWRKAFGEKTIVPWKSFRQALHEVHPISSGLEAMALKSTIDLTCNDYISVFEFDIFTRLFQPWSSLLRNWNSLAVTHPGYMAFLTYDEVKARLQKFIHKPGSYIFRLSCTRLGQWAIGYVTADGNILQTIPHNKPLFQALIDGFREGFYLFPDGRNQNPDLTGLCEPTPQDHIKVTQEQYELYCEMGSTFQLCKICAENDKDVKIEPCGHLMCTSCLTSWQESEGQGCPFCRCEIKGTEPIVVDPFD
Sequence of c-Cbl (residues 47-435) (P22681 47-435): as above

Compound	Fold of selectivity [1]	Kd [1]	Kd [2]	IC50 [3]	fold-selectivity (Cbl-b over C-cbl) [3]	IC50 [4]	IC50 ([3]; Example 121)	(fold-selectivity) Cbl-b and C-Cbl Selectivity [3]
Cn1cnnc1C1(c2cccc(N3Cc4c(cc(CNC5(C)CCC5)cc4C(F)(F)F)C3=O)c2)CC2(CCC2)C1	9.5×	2.1 nM	20 nM	–	–	–	–	–
CC(C)[C@H]1CN(C)CCN1Cc1cc2c(c(C(F)(F)F)c1)CN(c1cccc(C3(c4nncn4C)CC4(COC4)C3)c1)C2=O	14×	5.7 nM	78 nM	–	–	–	–	–
2-(3-(2-(4-methyl-4H-1,2,4-triazol-3-yl)-6-oxospiro[3.3]heptan-2-yl)phenyl)-6-(((1-methylcyclobutyl)amino)methyl)-4-(trifluoromethyl)isoindolin-1-one [Compound 92]	6.4×	3.4 nM	24 nM	–	–	–	–	–
2-(3-(3,3-dimethyl-1-(4-methyl-4H-1,2,4-triazol-3-yl)cyclobutyl)phenyl)-6-(((1-methylcyclobutyl)amino)methyl)-4-(trifluoromethyl)-isoindolin-1-one [Compound 39]	6.6×	2.3 nM	16 nM	–	–	–	–	–
2-(3-(6-hydroxy-2-(4-methyl-4H-1,2,4-triazol-3-yl)spiro[3.3]heptan-2-yl)phenyl)-6-(((1-methylcyclobutyl)amino)methyl)-4-(trifluoromethyl)isoindolin-1-one [Compound 93]	7.5×	1 nM	7.5 nM	–	–	–	–	–
2-(3-((1r,3r)-3-fluoro-1-(4-methyl-4H-1,2,4-triazol-3-yl)cyclobutyl)phenyl)-6-(((1-methylcyclobutyl)amino)methyl)-4-(trifluoromethyl)isoindolin-1-one [Compound 36]	2.8×	59 nM	170 nM	–	–	–	–	–
Cn1cnnc1C(c1cccc(N2Cc3c(cc(CNC4(C)CCC4)cc3C(F)(F)F)C2=O)c1)C1CC(F)(F)C1 (racemic) [Compound 145, 2-(3-((3,3-difluorocyclobutyl)(4-methyl-4H-1,2,4-triazol-3-yl)methyl)phenyl)-6-(((1-methylcyclobutyl)amino)methyl)-4-(trifluoromethyl)isoindolin-1-one]	14×	19 nM	290 nM	76 nM	2.4x	180 nM	–	–
Cn1cnnc1[C@@](O)(c1cccc(N2Cc3c(cc(CNC4(C)CCC4)cc3C(F)(F)F)C2=O)c1)C1CCC1 (single isomer, unassigned) [Compound 2]	13×	2.3 nM	29 nM	16 nM	(1.5x)	24 nM	–	–
CO[C@H]1C[C@H]([C@@H](c2cccc(N3Cc4c(cc(CN5CCN(C)C[C@@H]5C(C)C)cc4C(F)(F)F)C3=O)c2)c2nncn2C)C1 (single isomer, unassigned) [Compound 12]	5×	2.5 nM	12 nM	12 nM	(1.5x)	18 nM	–	–
CO[C@H]1C[C@@H]([C@@H](c2cccc(N3Cc4c(cc(CN5CCN(C)C[C@@H]5C(C)C)cc4C(F)(F)F)C3=O)c2)c2nncn2C)C1 (single isomer, unassigned) [Compound 14]	8.8×	630 nM	5500 nM	630 nM	(1.6x)	1000 nM	–	–
CO[C@H]1C[C@H]([C@@H](c2cccc(N3Cc4c(cc(CN5CCN(C)C[C@@H]5C(C)C)cc4C(F)(F)F)C3=O)c2)c2nncn2C)C1 (single isomer, unassigned) [Compound 15]	14×	770 nM	11000 nM	1900 nM	(1.6x)	4900 nM	–	–
CC(C)[C@H]1CN(C)CCN1Cc1cc2c(c(C(F)(F)F)c1)CN(c1cccc([C@]3(c4nncn4C)C[C@H](C#N)C3)c1)C2=O (single isomer, unassigned) [Compound 63]	5.1×	3.7 nM	19 nM	7.9 nM	(1.8x)	14.2 nM	–	–
CC(C)[C@H]1CN(C)CCN1Cc1cc2c(c(C(F)(F)F)c1)CN(c1cccc([C@]3(c4nncn4C)C[C@@H](C#N)C3)c1)C2=O (single isomer, unassigned) [Compound 64]	5.1×	16 nM	81 nM	24 nM	(2.9x)	70 nM	–	–
C[C@H]1CCCN(Cc2cc3c(c(C(F)(F)F)c2)CN(c2cccc(C4(c5nncn5C)CC5(COC5)C4)c2)C3=O)C1 (single isomer, unassigned) [Compound 66]	5.0×	16 nM	81 nM	25 nM	(2.5x)	62.5 nM	–	–
CC1=C[C@@](c2cc(NC3CCC3)nc(N3Cc4c(cc(CN5CCN(C)C[C@@H]5C(C)C)cc4C(F)(F)F)C3=O)c2)(c2nncn2C)C1 (single isomer, unassigned) [Compound 71]	9.1×	3.7 nM	34 nM	14 nM	(1.2x)	16.8 nM	–	–
CC(C)[C@H]1CN(C)CCN1Cc1cc2c(c(C(F)(F)F)c1)CN(c1cc([C@]3(c4nncn4C)C[C@H](C)C3)cc(OC3CCCC3)n1)C2=O (single isomer, unassigned) [Compound 73]	3.0×	1 nM	3 nM	22 nM	(1.6x)	35 nM	–	–
CC(C)[C@H]1CN(C)CCN1Cc1cc2c(c(C(F)(F)F)c1)CN(c1cc([C@]3(c4nncn4C)C[C@H](C)C3)cc(NC3CCCC3)n1)C2=O (single isomer, unassigned) [Compound 75]	7.7×	31 nM	230 nM	17 nM	(1.3x)	22 nM	–	–
CO[C@H]1C[C@](c2cccc(N3Cc4c(cc(CN5CCCCC5)cc4C(F)(F)F)C3=O)c2)(c2nncn2C)C1 [Compound 420, 2-(3-((1r,3r)-3-methoxy-1-(4-methyl-4H-1,2,4-triazol-3-yl)cyclobutyl)phenyl)-6-(piperidin-1-ylmethyl)-4-(trifluoromethyl)isoindolin-1-one]	–	–	–	–	–	720 nM	100 nM	7.2x
CO[C@H]1C[C@](c2cccc(N3Cc4c(cc(CN5CCC6(CC5)CC(O)C6)cc4C(F)(F)F)C3=O)c2)(c2nncn2C)C1 [Compound 424, 6-((2-hydroxy-7-azaspiro[3.5]nonan-7-yl)methyl)-2-(3-((1r,3r)-3-methoxy-1-(4-methyl-4H-1,2,4-triazol-3-yl)cyclobutyl)phenyl)-4-(trifluoromethyl)isoindolin-1-one]	–	–	–	–	–	1500 nM	230 nM	6.5x
C[C@@H](NC1(C)CCC1)c1cc2c(c(C(F)(F)F)c1)CN(c1cccc([C@@H](c3nncn3C)C3COC3)c1)C2=O [Compound 443, 2-(3-((S)-(4-methyl-4H-1,2,4-triazol-3-yl)(oxetan-3-yl)methyl)phenyl)-6-((R)-1-((1-methylcyclobutyl)amino)ethyl)-4-(trifluoromethyl)isoindolin-1-one]	–	–	–	–	–	5700 nM	3300 nM	1.7x
Cn1cnnc1[C@H](c1cccc(N2Cc3c(cc(CNC4(C)CCC4)cc3C(F)F)C2=O)c1)C1CC(F)C1 (stereo partly drawn) [Compound 460, 4-(difluoromethyl)-2-(3-((S)-((1r,3S)-3-fluorocyclobutyl)(4-methyl-4H-1,2,4-triazol-3-yl)methyl)phenyl)-6-(((1-methylcyclobutyl)amino)methyl)isoindolin-1-one]	–	–	–	–	–	3900 nM	610 nM	6.4x
CO[C@H]1C[C@](c2cccc(N3Cc4c(cc(CNC5(C)COC5)cc4C(F)(F)F)C3=O)c2)(c2nncn2C)C1 [Compound 479, 2-(3-((1r,3r)-3-methoxy-1-(4-methyl-4H-1,2,4-triazol-3-yl)cyclobutyl)phenyl)-6-(((3-methyloxetan-3-yl)amino)methyl)-4-(trifluoromethyl)isoindolin-1-one]	–	–	–	–	–	250 nM	29 nM	8.6x
